Results on six molecules are retold here after US11542475B2, “3D microphysiologic system” (Northwestern University, priority 2014, dated 2023).

Like-named read-outs stand apart in the source and are kept apart here.

The subject of data set [1] is Stage 5b mouse follicles. As to the method:
Cisplatin (CDDP) and cyclophosphamide (CTX) were obtained from Sigma-Aldrich (St. Louis, Mo.) and used at final concentrations of: 0.2, 1, and 5 μM. Nalbuphine and Raclopride were obtained from the NIH Clinical Collection (South San Francisco, Calif.) and used at final concentrations of: 0.2, 1, and 5 μM. Corexit EC 9500A was obtained via a Material Transfer Agreement from Nalco (Sugar Land, Tex.). CE was used at final concentrations of: 5 ppm, 10 ppm, 25 ppm, 50 ppm, 75 ppm, 100 ppm, 125 ppm, 150 ppm, 200 ppm, 250 ppm, 300 ppm, 350 ppm and 400 ppm, which correspond to 4.75 mg/L, 9.5 mg/L, 23.75 mg/L, 47.5 mg/L, 71.25 mg/L, 95 mg/L, 118.75 mg/L, 142.5 mg/L, […], 237.5 mg/L, 285 mg/L, 332.5 mg/L and 380 mg/L.
All experiments were performed using CD-1 female mice (Harlan Laboratories, Indianapolis, Ind.) that were housed in a controlled barrier facility at Northwestern University's Center of Comparative Medicine under constant temperature, humidity and light (12 h light/12 h dark). Food and water were provided ad libitum. All animal experiments were approved by the Institutional Animal Care and Use Committee and were in accordance with National Institutes of Health Guidelines. For follicle isolation, ovaries were dissected from 14-15-day-old mice and cut into 4 pieces. The tissue was incubated for 1 hour in L15 media (Invitrogen, Carlsbad, Calif., USA) containing 2% Liberase™ (Roche, Indianapolis, Ind.) and 1% DNase I (Worthington, Lakewood, N.J.). The enzymatic digestion was quenched by rinsing follicles in αMEM Glutamax (Invitrogen) containing 1% Fetal Bovine Serum (FBS, Invitrogen, Carlsbad, Calif.) and 0.5% Pen-Strep (Mediatech, Herndon, Va.). Type 5b multilayer secondary follicles (140-175 μm in diameter) were manually collected and cultured individually in wells of a 96-well plate (Pedersen and Peters, 1968; herein incorporated by reference in its entirety).
Follicles were cultured at 37° C. in a humidified atmosphere of 5% CO2 in air for up to 6 days. All chemical exposures were initiated on day 2 of culture. Half of the culture media was replaced with fresh GM every other day and spent media was stored at −20° C. for use in steroid hormone assays. Follicles were imaged at each media change using a Leica DM IRB inverted microscope equipped with 4× and 20× objectives (Leica Microsystems, Heidelberg, Germany) to assess survival, morphology and growth. Live follicles were defined as those that contained an oocyte surrounded completely by somatic cells. […] The percent of surviving follicles was calculated as the number of live follicles out of the total number of follicles plated. Antral cavity formation was assessed morphologically and characterized by the differentiation of outer layers of mural granulosa cells and inner layers of cumulus granulosa cells surrounding the oocyte as well as the presence of a fluid-filled structure.

In data set [2] the test system is endometrial cells. The data set is described as follows: Cell survival Wst-1 assay in endometrial cells cultured in 2D. The note with it: 2D culture, 72 hours. Type of data set: cell-based, human.
For data set [3], the system named is human fallopian fimbriae FTE. Description: 3D human fimbriae culture: FTE proliferation by BrdU labeling. Type of data set: cell-based. The note with it: insulin 5 μg/ml (ITS), H2O2 1 mM, E2 10 nM, n=6. The protocol: (§1) Tissues were micro-dissected in alpha-MEM (Gibco, Carlsbad, Calif.) with 1% penicillin-streptomycin (Invitrogen, Carlsbad, Calif.). Individual fimbriae were separated into ˜50 mm^3 pieces. A portion of the tissue was fixed in 2% paraformaldehyde for use as an uncultured control. For optimization studies, fimbriae were cultured without matrix, encapsulated in 0.5% alginate, or encapsulated in 0.5% alginate with 1 mg/ml collagen and 0.1% fibronectin, as previously described for murine cultures (King et al. J Vis Exp. 2011.; herein incorporated by reference in its entirety). For subsequent treatments, 0.5% alginate encapsulated fimbriae were randomly assigned to treatment groups, with at least five fimbriae per condition, per patient, in a 24-well plate containing alpha-MEM and 1% penicillin-streptomycin. […] Prior to fixation, fimbriae were labeled with 10 μM bromodeoxyurine (BrdU, Sigma-Aldrich) for 24 hours to denote proliferating cells. Fimbriae cultures were fixed (2% paraformaldehyde) followed by dehydration in ethanol and xylene, and embedment in paraffin.
Sections (5 μm) were cut and stained via hematoxylin and eosin for morphological analysis or immunohistochemistry was performed to localize proteins of interest as previously described (King et al. Endocr Relat Cancer. 2011. 18:627-42.; herein incorporated by reference in its entirety). Slides were rehydrated through an ethanol gradient, prior to 0.1M sodium citrate retrieval and peroxidase block. Tissues probed for BrdU were exposed to 4M HCl and 0.1M NaB4O7(Fisher Scientific) to denature DNA. All immunohistochemical reagents were obtained from Vector Laboratories, Inc (Burlingame, Calif.) unless otherwise stated. Tissues were blocked in 3% bovine serum albumin (Gemini, West Sacramento, Calif.)-TBS/10% serum and incubated with a primary antibody 1:50 acetylated tubulin (Cell Signaling, Cambridge, Mass.); 1:200 BrdU (AbCam, Cambridge, Mass.); 1:100 cytokeratin 8 (CK8, Developmental Studies Hybridoma Bank, Iowa City, Iowa); 1:50 p53 (Santa Cruz, Santa Cruz, Calif.); 1:100 PAX8 (Proteintech, Chicago, Ill.); 1:100 pH2AX (Cell Signaling); or 1:75 PR (Santa Cruz)) overnight at 4°. Tissues were washed in TBS-0.1% Tween and incubated with a secondary antibody (1:200), before being probed with ABC peroxidase standard, followed by detection with 3,3′-diaminobenzidine (DAB) and counterstained with hematoxylin.
Immunohistochemistry images were taken via a Nikon E600 microscope, DXM1200 digital camera and NIS Elements software (Nikon Instruments, Melville, N.Y.). For proliferation analysis, concurrent sections were stained for CK8 and BrdU. BrdU sections were imaged and epithelial cells (CK8 positive) were quantified for proliferation via ImageJ software (NIH, Bethesda, Md.). At least three fimbriae with 200 or more FTE were quantified for each treatment. […] Samples with p53 expression were quantified utilizing adjacent sections stained for the secretory cell marker PAX8 in a qualitative manner as described.
For orientation: Uptake of a labelled nucleoside into DNA is a usual measure of proliferation.

Data set [4] has as its system p53 stabilization in FTE. The data set is described as follows: 3D human fimbriae culture: p53 immunohistochemistry. The note with it: 2 and 7 days treatment, n=8. Type of data set: cell-based. The protocol: as §1
Sections (5 μm) were cut and stained via hematoxylin and eosin for morphological analysis or immunohistochemistry was performed to localize proteins of interest as previously described (King et al. Endocr Relat Cancer. 2011. 18:627-42.; herein incorporated by reference in its entirety). Slides were rehydrated through an ethanol gradient, prior to 0.1M sodium citrate retrieval and peroxidase block. […]
Immunohistochemistry images were taken via a Nikon E600 microscope, DXM1200 digital camera and NIS Elements software (Nikon Instruments, Melville, N.Y.). […] BrdU sections were imaged and epithelial cells (CK8 positive) were quantified for proliferation via ImageJ software (NIH, Bethesda, Md.). At least three fimbriae with 200 or more FTE were quantified for each treatment. Analysis of p53 staining was similar, with at least three fimbriae per treatment, per patient analyzed. Samples with p53 expression were quantified utilizing adjacent sections stained for the secretory cell marker PAX8 in a qualitative manner as described.

Data set [5] has as its system human fallopian tube epithelium. Description: Fallopian epithelia cilia beating quantification. Type of data set: cell-based. The settings on record: 7 days culture; P4 added to E2. The protocol:
Human fallopian tissue was obtained from routine hysterectomies from women in their reproductive years (ages range from 26 to 50 years old) and who had not undergone exogenous hormonal treatment for at least three months prior to surgery. Informed consent was obtained from each patient and approval granted by the ethics committee of the Northwestern University. Human fallopian tissue was kept in the DMEM/F12 medium with 10% FBS on ice and processed within 24 hours. The tissue was washed with warm PBS solution two times before being transferred into warm dissection medium (Liebowitz 15 with 0.5% P/S and 10% FBS). After cleaning connective tissue from outside of the fallopian tissue, the fallopian tube was cut open and the inner epithelia layer was mechanically dissected using forceps. […]
Fallopian epithelia layers were cultured in estradiol (E2) 1 nM, E2 1 nM+progesterone (P4) 10 nM, E2 0.1 nM+P4 50 nM or with solvent only negative control for 7 days. Cilia beating movies were acquired using an Andor Spinning Disk Confocal with 5 ms exposure time and 5 ms readout time. […] The Multiple Kymograph plugin for the NIH ImageJ software was used to quantify cilia beating frequency. In each movie, 8 clusters of cilia were picked for the cilia beating quantification.

The subject of data set [6] is OVGP1 expression in human fallopian epithelium. Description: OVGP1 immunoblot of cultured fallopian epithelium lysate. Type of data set: cell-based. The protocol:
(§2) Human fallopian tissue was obtained from routine hysterectomies from women in their reproductive years (ages range from 26 to 50 years old) and who had not undergone exogenous hormonal treatment for at least three months prior to surgery. Informed consent was obtained from each patient and approval granted by the ethics committee of the Northwestern University. Human fallopian tissue was kept in the DMEM/F12 medium with 10% FBS on ice and processed within 24 hours. The tissue was washed with warm PBS solution two times before being transferred into warm dissection medium (Liebowitz 15 with 0.5% P/S and 10% FBS). After cleaning connective tissue from outside of the fallopian tissue, the fallopian tube was cut open and the inner epithelia layer was mechanically dissected using forceps. […] Tissue was cultured on 0.4 μm pore Millicell inserts (PICM03050, EMD Millipore Co, Billerica, Mass., USA) twelve-well plates with culture medium in a 37° C. and 5% CO2 incubator. Estrogen (E2) and progesterone (P4) used in tissue culture experiments were purchased from Sigma (St. Louis, Mo.).
(§3) Cultured human fallopian epithelia layers were homogenized with a minipestle in ice-cold lysis buffer (20 mM Tris-HCl, pH 8.0, 137 mM NaCl, 10% glycerol, 1% NP-40, 2 mM EDTA). Lysate normalized for protein content was loaded into NuPAGE 4-12% gradient Bis-Tris precast SDS-PAGE gels and transferred to a nitrocellulose membrane (Life Technologies, Carlsbad, Calif., USA). Blots were probed by polyclonal anti-OVGP1 antibody (LsBio, Cambridge, Mass.) overnight in 4° C. followed by anti-rabbit secondary antibody conjugated to horseradish peroxidase (Zymed, San Francisco, Calif.). Proteins were detected by ECL primer (GE HealthCare Life Sciences, Pittsburgh, Pa.) and exposed to X-ray film (Kodak, Rochester, N.Y.). The same blot was stripped using stripping buffer (Thermo Scientific, Hanover Park, Ill.) and re-probed with monoclonal anti-α-tubulin (Sigma, St. Louis, Mo.) followed by an anti-mouse secondary antibody conjugated to horseradish peroxidase. NIH ImageJ Imaging Software was used to quantify the density of western blot bands. Conditioned medium from fallopian epithelia cultures was collected and probed via western blot analysis using a polyclonal anti-hIGF1 antibody (abcam, Cambridge, Mass.). The blot was detected by the same method described above.
On the technique in general: In western blotting, separated proteins are transferred to a membrane and probed.

Data set [7] relates to IGF1 secretion by human fallopian epithelium. Description: hIGF1 immunoblot of fallopian epithelium conditioned medium. Type of data set: cell-based. The protocol: as §2, §3
Fallopian epithelia layers cultured on […] inserts were pre-cultured in the alpha-MEM with 0.3% BSA, ITS and 1% P/S medium for two days. Cell culture medium was collected for the glucose ELISA assay (abcam, Cambridge, Mass.). Medium was diluted 1:500 and ELISA was performed according to the protocol provided by the kit. […]

Where [8] appears, read: 28 days stepwise E2 and P4 treatment, P4 in the presence of E2.

Consider `[NH2][Pt]([NH2])([Cl])[Cl]` [CDDP, Cisplatin], for which the “concentration at which complete release of the oocyte from the follicle was first observed” value in data set [1] worked out at 5000 nM. Besides, the follicle survival in data set [1] (1 μM, day 4 of culture) came out at 76.31%; in data set [1] (1 μM, day 6 of culture) it was 58.38%; in data set [1] (5 μM, day 4 of culture) it was 47.83%; in data set [1] (5 μM, day 6 of culture), 12.56%.
Consider `C[C@]12CC[C@H]3[C@@H](CCC4=CC(=O)CC[C@@]43C)[C@@H]1CC[C@@H]2O` [testosterone], for which the “toxicity on endometrial cells (cell survival)” value in data set [2] is given as “no toxicity”.
As for `OO` [H2O2], the figures for the “FTE proliferation (percentage of total FTE cells, BrdU)” value in data set [3] (2 days in culture) and in data set [3] (7 days in culture) were 4.0±1.1% and 2.2±0.5%, respectively. Moreover, the p53 stabilization entry in data set [4] is recorded as “no factor notably induced p53 stabilization”.
“Insulin: insulin 5 μg/ml given via ITS supplement (insulin; transferrin; selenite)”: the “FTE proliferation (percentage of total FTE cells, BrdU)” value in data set [3] (7 days in culture) came out at 4.1±0.9%. Further, the p53 stabilization result in data set [4] was “no factor notably induced p53 stabilization”.
Take `O=P1(N(CCCl)CCCl)NCCCO1` (centres unmarked) [CTX, cyclophosphamide]: the follicle survival in data set [1] (0.2 μM, day 6 of culture (treated on day 2)) amounted to 71.8%; in data set [1] (1 μM, day 4 of culture) it was 57.23%; in data set [1] (1 μM, day 6 of culture), 32.43%; in data set [1] (5 μM, day 4 of culture) it was 36.41%; in data set [1] (5 μM, day 6 of culture), 11.49%. In data set [1] (increasing concentrations (0.2, 1, 5 μM)), the follicle morphology result was “disorganized follicles with dark granulosa cells and little evidence of antral cavity formation”. For the same molecule, in data set [1] (most severe phenotype), the “concentration at which complete release of the oocyte from the follicle was first observed” value came to 1000 nM.
`CC(=O)[C@H]1CC[C@H]2[C@@H]3CCC4=CC(=O)CC[C@]4(C)[C@H]3CC[C@]12C` [P4, progesterone]: the “cilia beating frequency (CBF)” value in data set [5] is listed as “decreased”. In addition, the “OVGP1 expression in the fallopian lysate” value in data set [6] (7 days culture, P4 added to E2) is “suppressed”. The OVGP1 expression result in data set [6] (setting [8]) is listed as “suppressed”. The IGF1 secretion entry in data set [7] (7 days culture, 1 nM E2, P4 added to E2) is recorded as “attenuated”; in data set [7] (setting [8]), “suppressed”.
